The values below are quoted from earlier work in US6399093B1, “Method and composition to treat musculoskeletal disorders” (Advanced Medical Instruments, priority 1999, dated 2002).

The conditions of data set [1]: after oral administration.
For data set [2] the following is noted: oral diclofenac group.
For data set [3] the following is noted: oral.

On to `N[C@H]1C(O)O[C@H](CO)[C@@H](O)[C@@H]1O.O=S(=O)(O)O` (stereo partly drawn) [glucosamine sulfate], for which the “Onset of clinical improvement of symptoms” value in data set [1] is reported as “one”.
Regarding `O=C(O)Cc1ccccc1Nc1c(Cl)cccc1Cl` [diclofenac], in data set [2], the “Number of GI reactions relative to the topical eltenac group” value is recorded as “three”.
`COc1cc2c(c(OC)c1OC)-c1ccc(OC)c(=O)cc1[C@@H](NC(C)=O)CC2` [colchicine, Colchicine]: in data set [3], the “Patients unable to tolerate an optimal dose because of gastrointestinal side effects” value was “Eighty”.
